# Literature values in US20040234631A1, “Composition comprising soy and use thereof in the provention and/or treatment of various diseases” (priority 2001, published 2004).
# How the values were obtained:
# blood vessels = conditions: very low concentration
# estrogenic effect = conditions: in vitro, reported by Knight
Compound,concentration causing dilation of blood vessels (blood vessels) [nM],relative estrogenic potency (estradiol = 100) (estrogenic effect)
1-alkyl-2-acetyl analog of phosphatidyl choline [platelet-activating factor],0.1,–
O=c1c(-c2ccc(O)cc2)coc2cc(O)ccc12 [daidzein],–,0.013
